Structures can show the parent of a compound that is named as a salt.
Key:
Male Swiss mice [1] = assay: Formalin test (analgesic activity, licking time of the injected paw); assay type: in vivo; details: p.o. 10 min before 5% formalin injection into hind paw, second phase (15-60 min), % inhibition of licking vs. control, Litchfield and Wilcoxon; for ED50: Mus musculus, po, read-out: FORMALIN TEST (ED50 p.o) Phase II
Protocol: The pharmacological activity of the products of the present invention was tested in vivo in formalin test model, which is known to evaluate neuropathic and inflammatory pain in animals.
The formalin test was introduced as a model of tonic pain in 1977, and has since […] been used extensively in rats and mice. In rats, formalin generates an initial phase of activity (5-10 min, phase 1), a quiescent interphase (5-10 min), and a second phase of activity (lasting 60-90 min, phase 2), and this is seen with spontaneous behaviors, firing of afferent neurons, and activity in dorsal horn neurons. Both active phases involve ongoing peripheral afferent neural activity; inflammation contributes to phase 2 activity and the interphase results from active inhibition. Responses are concentration dependent between 0.25% and 2.5%, plateau from 2.5% to 5%, and can decline at higher concentrations. Formalin also results in tissue edema, and this is longer lasting. Responses to formalin up to 2.5% are predominantly neurogenic, while at higher concentrations, responses involve a further prominent inflammatory component. Within the spinal cord, formalin increases c-Fos expression in neurons and causes activation of microglia, and these may contribute more prominently to longer term changes. Acute responses (to 90 min) may represent a model of ongoing acute pain involving inflammation and aspects of central sensitization, while longer term responses (days, weeks) may represent a model of changes involved in persistent pathological pain.
Male Swiss mice (weight range, 16-20 g) were used (n=6-8 per group).Mice were fasted for 3 hours before the administration of oral treatment with free access to drinking water before the experiment. All experiments were conducted in accordance with the “Guidelines on Ethical Standards for Investigation of Experimental Pain in Animals
Mice were housed in clear plastic chambers with a mirror placed at a 45° angle to allow an unobstructed view of the paws. Mice were injected into the dorsal surface of hind paw with 20 μl of dilute formalin (5%) using a 30-gauge needle. Treatments were administrated p.o. 10 min before formalin injection.
Nociceptive behavior was quantified measuring time spent licking the injected paw after injection.
For evaluation of antinociceptive effect of a potential drug for neuropathic pain, the quantization of the second phase of the test (15-60 min) is the most important. Controls animals were observed under identical conditions without receiving treatments before formalin injection.
For each dose of compound given the % inhibition of licking vs. control animals were calculated. ED50 was calculated using the method of Litchfield and Wilcoxon. At the end of the experiments, mice were humanely euthanized with a dose of sodium pentobarbital (150 mg/kg i.p.).

Male Swiss mice [2] = assay: Hot plate method (acute pain model); assay type: in vivo; details: Mus musculus, oral, 30 minutes before test, hot surface 55° C, dose producing 50% MPE, cutoff 60 seconds, read-out: HOT PLATE (ED50, p.o)
Protocol: The activity of some of the products was also tested using an acute pain model by using the hot plate method.
The method that was used is described by Eddy N. B. and Leimbach D. (J. Pharm. Exp. Ther. 107: 385-393, 1953). The analgesic effect of the products was evaluated analyzing the behavior of the animals on a hot surface at 55° C±1° C.
Male Swiss mice weighing 20-25 g were used. The compounds being tested were administered orally 30 minutes before starting the test.
The process consisted of placing the animals on the plate and keeping them in a Plexiglas cylinder 25 cm high and 21 cm […]. The time the animals took to jump off the hot surface was determined The animals were selected before starting the test so that those that took longer than 10 seconds to jump off (predrug latency) were not included in the group that would receive treatment.
A predrug latency time was determined before product treatment in all animals and 30 minutes after administering the product being tested, the test was repeated and the maximum time it took the animals to jump off (test latency) was again recorded.
The results are expressed in the table as ED50 that was calculated from % MPE (Maximum Posible Effect) determined as follows:
% MPE=100×(test latency−predrug latency)/(cutoff time−predrug latency)
The % MPE was measured for each compound at different dose levels (μmol/kg) and the ED50 values (dose of compound that produced 50% MPE) were obtained using a computer assisted linear regression analysis of the dose-response curve, including an analysis of variance test for linearity.

Row | SMILES | ED50 (Male Swiss mice [1]) | ED50 (Male Swiss mice [2]) | FORMALIN TEST (ED50 p.o) Phase II (Male Swiss mice [1])
1 | CC(=O)NCC1(CC(=O)Oc2cccc(C3(O)CCCCC3CN(C)C)c2)CCCCC1 (centres unmarked) [Product of example 18, (1R2R, 1S2S)3(2-((dimethylamino)methyl)-1-hydroxycyclohexyl)phenyl 2-(1-(acetamidomethyl)cyclohexyl)acetate] | 30.4 µmol/kg |  | 
2 | COC(=O)NCC1(CC(=O)Oc2cccc(C3(O)CCCCC3CN(C)C)c2)CCCCC1 (centres unmarked) [Product of example 14, (1R2R, 1S2S) 3-(2-((dimethylamino)methyl)-1-hydroxycyclohexyl)phenyl 2-(1-((methoxycarbonylamino)methyl)cyclohexyl)acetate] | 44.5 µmol/kg |  | 
3 | CCOC(=O)NCC1(CC(=O)Oc2cccc([C@]3(O)CCCC[C@H]3CN(C)C)c2)CCCCC1 [Product of example 13, 3-((1S,2S)-2-((dimethylamino)methyl)-1-hydroxycyclohexyl)phenyl 2-(1-((ethoxycarbonylamino)methyl)cyclohexyl)acetate] | 28 µmol/kg |  | 
4 | CC(C)OC(=O)NCC1(CC(=O)Oc2cccc(C3(O)CCCCC3CN(C)C)c2)CCCCC1 (centres unmarked) [Product of example 15, (1R2R, 1S2S) 3-(2-((dimethylamino)methyl)-1-hydroxycyclohexyl)phenyl 2-(1-((isopropoxycarbonylamino)methyl)cyclohexyl)acetate] | 57.9 µmol/kg |  | 
5 | CN(C)CC1CCCCC1(O)c1cccc(OC(=O)CC2(CNC(=O)OC(C)(C)C)CCCCC2)c1 (centres unmarked) [Product of example 1, (1R2R, 1S25)-3-(2-((dimethylamino)methyl)-1-hydroxycyclohexyl)phenyl 2-(1-((tert-butoxycarbonylamino)methyl)cyclohexyl)acetate] | 39.9 µmol/kg | 35.7 µmol/kg | 
6 | CCOC(=O)NCC1(CC(=O)Oc2cccc(C3=C(CN(C)C)CCCC3)c2)CCCCC1 [Product of example 19, 3-(2-((dimethylamino)methyl)cyclohex-1-enyl)phenyl 2-(1-((ethoxycarbonylamino)methyl)cyclohexyl)acetate] | 62.7 µmol/kg |  | 
7 | CN(C)CC1CCCCC1(O)c1cccc(OC(=O)CC2(CNC(=O)Oc3ccccc3)CCCCC2)c1 (centres unmarked) [Product of example 17, (1R2R, 1S2S)3(2-((dimethylamino)methyl)-1-hydroxycyclohexyl)phenyl 2-(1-((phenoxycarbonylamino)methyl)cyclohexyl)acetate] | 39 µmol/kg |  | 
8 | CN(C)C[C@@H]1CCCC[C@@]1(O)c1cccc(OC(=O)CC2(CNC(=O)OC(C)(C)C)CCCCC2)c1 [Product of example 3] | 65.9 µmol/kg |  | 
9 | COc1cccc([C@]2(O)CCCC[C@H]2CN(C)C)c1 (single isomer, unassigned) [Tramadol Enantiomer S,S, reference compound] |  |  | 233.3 µmol/kg
10 | CCOC(=O)NCC1(CC(=O)Oc2cccc(C3=CCCCC3CN(C)C)c2)CCCCC1 (centres unmarked) [Product of example 20, 3-(6-((dimethylamino)methyl)cyclohex-1-enyl)phenyl 2-(1-((ethoxycarbonylamino)methyl)cyclohexyl)acetate] | 59.7 µmol/kg |  | 
11 | CCOC(=O)NC[C@H](CC(=O)Oc1cccc([C@@]2(O)CCCC[C@@H]2CN(C)C)c1)CC(C)C [Product of example 24, (S)-3-((1R,2R)-2-((dimethylamino)methyl)-1-hydroxycyclohexyl)phenyl 3-((ethoxycarbonylamino)methyl)-5-methylhexanoate] | 56.9 µmol/kg |  | 
12 | CCOC(=O)NCC1(CC(=O)Oc2cccc(C3(O)CCCCC3CN(C)C)c2)CCCCC1 (centres unmarked) [Product of example 4, (1R2R, 1S2S) 3-(2-((dimethylamino)methyl)-1-hydroxycyclohexyl)phenyl 2-(1-((ethoxycarbonylamino)methyl)cyclohexyl)acetate] | 19 µmol/kg | 26.3 µmol/kg | 
13 | CCOC(=O)NC[C@H](CC(=O)Oc1cccc(C2(O)CCCCC2CN(C)C)c1)CC(C)C (stereo partly drawn) [Product of example 23, (1R2R, 1S2S)-(S)-3-(2-((dimethylamino)methyl)-1-hydroxycyclohexyl)phenyl 3-((ethoxycarbonylamino)methyl)-5-methylhexanoate] | 75.2 µmol/kg |  | 
14 | COc1cccc([C@@]2(O)CCCC[C@@H]2CN(C)C)c1 (single isomer, unassigned) [Tramadol Enantiomer R,R, reference compound] |  |  | 126.6 µmol/kg
15 | CCOC(=O)NCC1(CC(=O)Oc2cccc([C@@H](CC)[C@@H](C)CN(C)C)c2)CCCCC1 [Product of example 22, 3-((2R,3S)-1-(dimethylamino)-2-methylpentan-3-yl)phenyl 2-(1-((ethoxycarbonylamino)methyl)cyclohexyl)acetate] | 30.4 µmol/kg |  | 
16 | CN(C)CC1CCCCC1(O)c1cccc(OC(=O)CC2(CNC(=O)OCc3ccccc3)CCCCC2)c1 (centres unmarked) [Product of example 16, (1R2R, 1S2S)3(2-((dimethylamino)methyl)-1-hydroxycyclohexyl)phenyl 2-(1-((benzyloxycarbonylamino)methyl)cyclohexyl)acetate] | 37.9 µmol/kg |  | 
17 | CN(C)C[C@H]1CCCC[C@]1(O)c1cccc(OC(=O)CC2(CNC(=O)OC(C)(C)C)CCCCC2)c1 [Product of example 2] | 17.2 µmol/kg | 8 µmol/kg | 
18 | CCOC(=O)NCC1(CC(=O)Oc2cccc([C@@]3(O)CCCC[C@@H]3CN(C)C)c2)CCCCC1 [Product of example 5, 3-((1R,2R)-2-((dimethylamino)methyl)-1-hydroxycyclohexyl)phenyl 2-(1-((ethoxycarbonylamino)methyl)cyclohexyl)acetate] | 6 µmol/kg |  | 
19 | COc1cccc([C@@]2(O)CCCC[C@@H]2CN(C)C)c1 (relative stereo) [Tramadol hydrochloride, (1R,2R)-rel-2-[(dimethylamino)methyl]-1-(3-methoxyphenyl) cyclohexanol, reference compound] | 139 µmol/kg | 66 µmol/kg | 

Reference: patent US20130046012A1, “NEW COMPOUNDS, SYNTHESIS AND USE THEREOF IN THE TREATMENT OF PAIN” (LACER, S.A., priority 2010, published 2013)
